Data published in publication PMC7848139, “Novel Hybrid CHC from β-carboline and N-Hydroxyacrylamide Overcomes Drug-Resistant Hepatocellular Carcinoma by Promoting Apoptosis, DNA Damage, and Cell Cycle Arrest” (Frontiers in Pharmacology, 2021).

Tests used:
Huh7 = test: MTT antiproliferative assay, Huh7; type: cell-based; details: Homo sapiens, Huh-7, 72 h, mean ± SD of three experiments, read-out: In vitro antiproliferative activity (IC50) Huh7
Description: (§1) Briefly, appropriate cells (1 × 10^4 cells/mL) were placed into 96-well plates in 100 μL of DMEM medium overnight. Then adding 100 μL of evaluated compounds into individual well for 72 h while 0.1% DMSO aqueous solution was treated as the negative control. After incubation with 30 μl MTT (5 mg/mL) for 4 h in all well, and ELISA plate reader measured absorbance of each well at 570 nm. Then calculating cytotoxicity effect of evaluated compounds through the formula: Cell inhibitory percentage (%) = (1−OD of treatment group/OD of control) × 100%.

SMMC-7721 = test: MTT antiproliferative assay, SMMC-7721; type: cell-based; details: Homo sapiens, 72 h, mean ± SD of three experiments, read-out: In vitro antiproliferative activity (IC50) SMMC-7721
Description: as §1

HCT116 = test: MTT antiproliferative assay, HCT116; type: cell-based; details: Homo sapiens, HCT-116, 72 h, mean ± SD of three experiments, read-out: In vitro antiproliferative activity (IC50) HCT116
Description: as §1

Bel7402/5-FU xenografts = test: In vivo tumor growth inhibition, Bel7402/5-FU xenograft; set-up: species or system BALB/c nude mice; details: 70 μmol/kg, intraperitoneal daily, 21 days, n = 6; saline group 1.47 ± 0.21 g
Description: All animal experimental protocols were approved by the Animal Research and Care Committee of Nantong University. Female BALB/c nude mice at 5∼6 week-old were subcutaneously implanted with 1×10^6 Bel7402/5-FU cells. […] The body mass and tumor size of nude mice were surveyed every three days during the 21 days study. Tumor size (mm^3) of nude mice was determined using the formula: tumor size = ½ (Length×Width^2). Finally, these tumor-bearing mice were sacrificed, and their tumors were removed and weighed at the end of the 21 days.
Data (means ± SD) were from tumor volumes or weight of each group of mice (n = 6 per group). *p < 0.01 vs. control group.

Bel7402/5-FU cells = test: Cell apoptosis analysis by flow cytometry; type: cell-based, human; details: 5.0 μM, 72 h
Description: Briefly, Bel7402/5-FU cells were cultured in DMEM at 37°C with 5% CO2 for 12 h. […] Then Bel7402/5-FU cells were collected and using APC-Annexin V and 7-AAD to stain these cells under the condition of 37°C for 15 min. Flow cytometry analysis (Calibur, BD, United States) decide the percentage of apoptotic cells according to APC signal (FL4) (excitation wavelength at 633 nm; emission wavelength at 660 nm) and 7-AAD staining signal (FL3) (excitation wavelength at 488 nm; emission wavelength at 647 nm). WinList 3D (7.1) analyzed the data and Excel 2016 plotted the histogram.
FIGURE 5 CHC causes apoptosis of Bel7402/5-FU cells. […] The data (mean ± SD, percentage of apoptotic cells) represent the average of three separate experiments. *p < 0.01 vs. control.

CT-DNA = test: UV-visible spectroscopy titrations with CT DNA; type: binding, calf; details: 20 μM compound, equal increments of CT-DNA, 25°C
Description: The ultraviolet spectrophotometer (UV2500, Shimadzu, Tokyo, Japan) recorded UV–visible spectroscopy under titrations at 25°C. Tris buffer (5 mM) was used to prepare Stock solutions of CT DNA (20 μM, calf thymus DNA) comprising ideal structure of double stranded DNA. Dissolving synthesized derivative in 1:1000 DMSO/Milli Q water to prepare stock solutions of them (20 μM). UV–visible absorption titrations were carried out with addition of 100 μl CT DNA solution to 4 ml solution of tested compound in quartz cuvette each time interval. Until the absorption band of complex containing synthesized derivative and CT DNA kept at a stable wavelength after adding CT DNA successfully for five times, titrations were finished. Finally, spectrophotometer noted the absorption spectra (250–500 nm).
FIGURE 7 UV-visible absorption spectra of CHC after adding equal amounts of CT DNA. Arrows indicate changes in absorbance with increasing concentrations of DNA [CHC] = 20 μM.

Row | SMILES | IC50 (Huh7) | IC50 (SMMC-7721) | IC50 (HCT116) | tumor mass at end of treatment (Bel7402/5-FU xenografts) | rate of Annexin V+ Bel7402/5-FU cellular apoptosis (Bel7402/5-FU cells) | change of UV-visible absorption upon adding CT-DNA (CT-DNA)
1 | COc1ccc2c(c1)[nH]c1c(C)nccc12 [Harmine, harmine, reference compound] | 41.9 ± 5.06 µM | 47.6 ± 5.12 µM | 43.8 ± 3.85 µM |  |  | 
2 | O=C(CCCCCCC(=O)Nc1ccccc1)NO [SAHA, Vorinostat, reference compound] |  |  |  | 0.76 ± 0.11 g | 30.8% | slightly increased
